Data as given in publication PMC9098913, “In vitro reconstitution of Escherichia coli divisome activation” (Nature Communications, 2022).
Read-outs that look alike come from different tables or passages of the source.

Tests used:
FtsZ [1] = tested on: FtsZ;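 as to effect on FtsZ pattern reorganization dynamics: FtsZ filament patterns imaged by time-lapse TIRF microscopy, one frame per 2 s, with ATP and GTP, Pearson correlation of first frame versus later frames, monoexponential fit, slower decay means persistent structures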
Description: (§1) Subsequently, the chamber was washed 6x with reaction buffer, to remove bulk peptide. To visualize colocalization with either FtsZ or FtsA, either a mix of FtsA and Alexa488-FtsZ or Cy3-FtsA and FtsZ was added. […] The time-lapse videos were recorded for 10 min after the addition, with one frame per 2 s.
Time-lapse videos were first intensity-corrected and contrast-enhanced to avoid bleaching effects and simplify subsequent analysis. To remove contributions of X–Y drift, the videos were processed with the Linear Stack Alignment with SIFT plugin. Proper alignment was checked with the 3TP align plugin (J. A. Parker; Beth Israel Deaconess Medical Center, Boston). Subsequently, regions of interest (ROIs) in the center of the stacks were chosen for colocalization analysis. The Pearson’s correlation coefficient (PCC) was quantified with the Image CorrelationJ 1o plugin. To extract information about the relative ratio of FtsZ/FtsA molecules (slope of linear regression), we also used the Image CorrelationJ 1o plugin. As an output, the plugin provides a scatterplot of FtsZ vs FtsA intensities, to which we fitted a linear slope y=k⋅x+d , where k is the slope and d the offset. The slope was used as an estimate for the ratio of FtsA molecules below FtsZ filaments.

FtsZ [2] = tested on: FtsZ; remark: listed apart in the source;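 as to effect on FtsZ pattern reorganization dynamics: FtsZ filament patterns imaged by time-lapse TIRF microscopy, one frame per 2 s, with ATP and GTP, Pearson correlation of first frame versus later frames, monoexponential fit, slower decay means persistent structures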
Description: as §1
Treadmilling dynamics, were quantified using an automated image analysis protocol previously developed by our group. To visualize colocalization of the co-treadmilling FtsZ & FtsA filaments, we used dual-colour videos obtained at an acquisition rate of one frame per 2 s. The two channels were aligned using FIJI’s 3TP align plugin. Both channels were then subjected to the image subtraction protocol and colocalization was measured as described above.

FtsA/Z co-filaments = target: T1, FtsA/Z co-filaments (Escherichia coli, UniProt P0A9A6+P0ABH0, R286W); assay type: biochemical, E. coli; settings: all concentrations of FtsA R286W
T1 construct: TwinStrep-SUMO (N, cleaved yes); made in house; host or cells: E. coli BL21
T1 sequence (P0A9A6 whole entry): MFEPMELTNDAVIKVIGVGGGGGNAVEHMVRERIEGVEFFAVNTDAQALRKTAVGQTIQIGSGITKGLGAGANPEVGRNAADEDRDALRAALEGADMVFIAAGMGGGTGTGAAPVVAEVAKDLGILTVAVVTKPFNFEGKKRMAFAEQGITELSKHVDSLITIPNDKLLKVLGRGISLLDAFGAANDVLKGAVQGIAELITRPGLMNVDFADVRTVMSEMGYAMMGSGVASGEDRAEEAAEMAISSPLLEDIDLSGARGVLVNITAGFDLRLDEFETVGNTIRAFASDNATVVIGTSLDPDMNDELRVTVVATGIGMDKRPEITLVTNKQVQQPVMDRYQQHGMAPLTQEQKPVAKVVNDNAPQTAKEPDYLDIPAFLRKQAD
T1 sequence (P0ABH0 whole entry R286W): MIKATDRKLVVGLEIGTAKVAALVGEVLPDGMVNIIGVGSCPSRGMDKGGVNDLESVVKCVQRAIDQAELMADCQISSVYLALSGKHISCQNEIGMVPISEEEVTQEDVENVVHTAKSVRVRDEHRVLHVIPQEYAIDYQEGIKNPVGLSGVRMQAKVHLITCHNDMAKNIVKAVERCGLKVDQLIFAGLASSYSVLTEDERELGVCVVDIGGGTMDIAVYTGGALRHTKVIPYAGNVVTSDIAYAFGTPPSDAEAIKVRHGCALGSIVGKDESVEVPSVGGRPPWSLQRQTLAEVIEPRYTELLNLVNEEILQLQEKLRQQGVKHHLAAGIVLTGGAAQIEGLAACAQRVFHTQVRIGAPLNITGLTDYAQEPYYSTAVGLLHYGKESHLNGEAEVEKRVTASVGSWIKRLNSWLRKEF
Description: By fitting an exponential function to the increase of the PCC with time, we were able to extract the corresponding recruitment rate (Fig. 2f, g).
as §1

FtsZ-FtsA WT filaments = target: T2, FtsZ-FtsA WT filaments (Escherichia coli, UniProt P0A9A6+P0ABH0); assay type: binding, E. coli; settings: 0.2 µM FtsA WT, 1.25 µM FtsZ, […] Tris-NTA; p-value 0.03
T2 construct: TwinStrep-SUMO (N, cleaved yes); made in house; host or cells: E. coli BL21
T2 sequence (P0A9A6 whole entry): as the sequence (P0A9A6 whole entry) above
T2 sequence (P0ABH0 whole entry): as the sequence (P0ABH0 whole entry R286W) above, with W286R counted along it
Text: Single molecule time lapses were acquired every 32 or 51 ms, with exposure times of 30 and 50 ms, respectively.
Single-molecule experiments with FtsNcytowere tracked using the TrackMate plugin from ImageJ[43]. Non-moving particles and short tracks (below 1 s) were filtered out and the data exported as.xml files. […] The packing coefficient is defined as the length of the trajectory in a short time window and the surface area that it occupies. […] This approach is adapted from Renner et al. and implemented here as an easy-to-use Python script. The packing coefficient is computed for each time point as:1 p=∑ii+n−1xi+1−xi^2−yi+1−yi^2/Si^2 Where xi,yi are the coordinates at time i, xi+1, yi+1 are the coordinates at time i+1, n is the length of the time window, and Si is the surface area of the convex hull of the trajectory segment between time points i and i+n. Periods of confinement are identified by setting a threshold corresponding to a certain confinement area size, since p scales with the size of the confinement area. Then it is possible to calculate the frequency and duration of confinement periods and to localize them in space. Each position will have a characteristic p, considering the behaviour of the following n positions. This approach overcomes the limitations of using MSD calculation, which overlooks transient confinement periods. […]

FtsZ [3] = settings: either version of FtsA
Description: Additionally, the reaction chamber contained 4 mM ATP and 4 mM GTP, as well as a scavenging system to minimize photobleaching effects: 30 mM d-glucose, 0.050 mg ml^−1 Glucose Oxidase, 0.016 mg ml^−1 Catalase, 1 mM DTT and 1 mM Trolox. Prior addition of all components a corresponding buffer volume was removed from the chamber to obtain a total reaction volume of 100 µl. The dynamic protein pattern was monitored by time-lapse TIRF microscopy at one frame per 2 s and 50 ms exposure time.
To measure reorganization dynamics of FtsZ filaments, we used a temporal correlation analysis based on the Image CorrelationJ 1o plugin. We quantified the PCC between the first frame to subsequent frames with increasing time lag (∆t). The decrease in the PCC was plotted against ∆t to obtain autocorrelation curves. Slower decay indicates more persistent structures. The rates of decay were extracted by fitting monoexponential decay to the autocorrelation curves y=a⋅e^−b⋅t+k , where a is the starting point, b is the decay rate and k is the final offset. The half time of the monoexponential decay was calculated via the decay rate.

[4] = FtsA R286W, even at concentrations above 0.4 µM

CSCC[C@H](NC(=O)[C@@H](N)CS)C(=O)N[C@@H](C)C(=O)N[C@@H](CCC(N)=O)C(=O)N[C@@H](CCCNC(=N)N)C(=O)N[C@@H](CC(=O)O)C(=O)N[C@@H](Cc1ccc(O)cc1)C(=O)N[C@H](C(=O)N[C@@H](CCCNC(=N)N)C(=O)N[C@@H](CCCNC(=N)N)C(=O)N[C@@H](CO)C(=O)N[C@@H](CCC(N)=O)C(=O)N1CCC[C@H]1C(=O)N[C@@H](C)C(=O)N1CCC[C@H]1C(=O)N[C@@H](CO)C(=O)N[C@@H](CCCNC(=N)N)C(=O)N[C@@H](CCCNC(=N)N)C(=O)N[C@@H](CCCCN)C(=O)N[C@@H](CCCCN)C(=O)N[C@@H](CO)C(=O)N[C@H](C(=O)N[C@@H](CO)C(=O)N[C@@H](CCCNC(=N)N)C(=O)N[C@@H](CCCCN)C(=O)N[C@@H](CCCCN)C(=O)N[C@@H](CCC(N)=O)C(=O)N[C@@H](CCCNC(=N)N)C(=O)N[C@@H](CC(N)=O)C(=O)N[C@@H](CC(C)C)C(=O)N1CCC[C@H]1C(=O)N[C@@H](C)C(=O)N[C@H](C(=O)N[C@@H](Cc1c[nH]cn1)C(=O)N[C@@H](Cc1c[nH]cn1)C(=O)N[C@@H](Cc1c[nH]cn1)C(=O)N[C@@H](Cc1c[nH]cn1)C(=O)N[C@@H](Cc1c[nH]cn1)C(=O)N[C@@H](Cc1c[nH]cn1)C(=O)O)C(C)C)[C@@H](C)O)C(C)C [FtsNcyto]
PCC FtsNcyto/FtsZ (FtsZ [1]; 0.4 µM FtsA R286W, […] Tris-NTA, 1.25 µM FtsZ, p-value 4.92 × 10^−4): 0.70 ± 0.02 | PCC FtsNcyto/FtsZ (FtsZ [1]; 0.4 µM FtsA WT, […] Tris-NTA, 1.25 µM FtsZ, p-value 4.92 × 10^−4): 0.30 ± 0.05 | PCC FtsNcyto/FtsZ (FtsZ [1]; [4]): > 0.6 | PCCdiff FtsNcyto/FtsZ (FtsZ [2]; 0.4 µM FtsA R286W, […] Tris-NTA, 1.25 µM FtsZ, p-value 3.79 × 10^−3): 0.47 ± 0.05 | PCCdiff FtsNcyto/FtsZ (FtsZ [2]; 0.4 µM FtsA WT, […] Tris-NTA, 1.25 µM FtsZ, p-value 3.79 × 10^−3): 0.17 ± 0.04 | PCCdiff FtsNcyto/FtsZ (FtsZ [2]; [4]): > 0.6 | FtsNcyto enrichment saturated within (FtsA/Z co-filaments): ≤ 1 min | frequency of transient confinement (FtsZ-FtsA WT filaments): 57.99 ± 7.29% | effect on FtsZ pattern reorganization dynamics (FtsZ [3]): significantly slows down
